The values below are quoted from earlier work in PMC6253886, “Prodrugs of Thyrotropin-Releasing Hormone and Related Peptides as Central Nervous System Agents” (Molecules, 2009).

Read-outs that look alike come from different tables or passages of the source. Marks after values point to notes of the source that are not given here. [ ]: non-standard residue; d: D form. The star is where a group is joined. O(cholesteryl) = CC(C)CCC[C@@H](C)[C@H]1CC[C@H]2[C@@H]3CC=C4C[C@@H](O*)CC[C@]4(C)[C@H]3CC[C@]12C; pGlu = O=C1CC[C@@H](C(=O)O)N1; Dht = not defined here

The conditions of data set [1]: IAMC. An excerpt: We utilized again the robust ... || (+ 2 further places)
The test system of data set [2] is mice. To be noted: for Analeptic Effect: % Decrease in Sleeping Time / Sleeping time (min): 10 µmol/kg i.v.; for Analeptic Effect: % Decrease in Sleeping Time: percent decrease vs saline vehicle counted as 100%; for % Decrease in Sleeping Time / Sleeping time (min): pentobarbital 60 mg/kg i.p. 10 min later; for % Decrease in Sleeping Time: percent of vehicle sleeping time (54.9 ±3.8 min); for Sleeping time (min): saline vehicle 80±2 min. The protocol:
Table 1 Barbiturate-induced sleeping times in mice after the administration of [Leu^2]TRH and its produgs having various spacers (S). Sleeping time decrease is expressed as percent of sleeping time for vehicle administration only (54.9 ±3.8 min). […] Values are expressed as percent decrease compared to those of saline vehicle that was counted as 100%. *Statistically significant difference from saline control (ANOVA followed by Dunnett’s, P < 0.05, n=6–16). Repri | column: Analeptic Effect:% Decrease in Sleeping Time || (+ 5 further places)

Data set [3] concerns mice. To be noted: 3 µmol/kg i.v., percent decrease vs saline vehicle counted as 100%, n=6–16. An excerpt:
Table 4 Comparison of analeptic (equimolar dose of 10 µmol/kg body weight, i.v.) and antidepressant (equimolar dose of 3 of µmol/kg body weight, i.v) effects of test compounds in mice. Values are expressed as percent decrease compared to those of saline vehicle that was counted as 100%. *Statistically significant difference from saline control (ANOVA followed by Dunnett’s, P < 0.05, n=6–16). Repri | column: Porsolt Swim Test:% Decrease in Immobility

The target in data set [4] is TRH receptor (Rattus norvegicus) (UniProt Q01717). In words: radioligand competition. Background: Displacement assays read how much labelled ligand stays bound in the presence of the test substance.
Chain of TRH receptor (Rattus norvegicus) (Q01717 whole entry): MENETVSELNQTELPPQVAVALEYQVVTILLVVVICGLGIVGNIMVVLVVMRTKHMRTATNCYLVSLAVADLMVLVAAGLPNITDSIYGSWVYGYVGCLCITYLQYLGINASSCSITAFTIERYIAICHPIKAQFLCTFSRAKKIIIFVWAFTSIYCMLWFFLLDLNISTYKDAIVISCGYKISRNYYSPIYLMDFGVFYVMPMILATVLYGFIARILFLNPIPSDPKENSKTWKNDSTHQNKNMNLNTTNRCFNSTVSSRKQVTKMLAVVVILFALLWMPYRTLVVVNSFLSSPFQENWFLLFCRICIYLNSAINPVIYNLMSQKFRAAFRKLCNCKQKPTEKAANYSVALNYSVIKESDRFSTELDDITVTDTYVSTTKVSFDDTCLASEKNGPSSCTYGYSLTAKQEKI
The subject of data set [5] is triiodothyronine (T3) levels. To be noted: review statement. An excerpt: (§1) Many pharmacological activities of this peptide are similar to those of TRH [54]; however, the beneficial effects after treatment with [Glu^2]TRH are reportedly more robust or prolonged. These advantages are probably due to the increased resistance of this peptide to enzymes principally responsible for the rapid degradation of TRH in vivo [40].

A further data set has as its system TRH receptors. The conditions noted are these: review statement.
Source text: as §1

How the values of data set [6] were obtained:
Studies in rodents and humans have shown that this tripeptide has a very short (6–10 min) half-life in plasma. The rapid degradation in this medium is mainly due to the action of pyroglutamyl aminopeptidases. Additionally, this highly hydrophilic molecule (logP = –2.46) also lacks its own active BBB transport system; thus, high doses of the peptide unavoidably manifesting a profound and undesired hormonal (endocrine) effect would be required for CNS application. Therefore, dissociation of endocrine and CNS actions of TRH is a crucial issue in designing TRH analogues a ... || A centrally selective natural analogue of TRH is [Leu^2]TRH (pGlu-Leu-Pro-NH2, Figure 1), in which the central His of TRH is replaced with Leu. […] Therefore, we selected this tripeptide for substantiating our brain-targeting prodrug approach. […] The amino- and carbox ...
This is another data set of the same source.

On data set [7], the source says:
A centrally selective natural analogue of TRH is [Leu^2]TRH (pGlu-Leu-Pro-NH2, Figure 1), in which the central His of TRH is replaced with Leu. […] Therefore, we selected this tripeptide for substantiating our brain-targeting prodrug approach. […] The amino- and carbox ...
This is another data set of the same source.

For data set [8], the system named is receptor labeled by [3H][3-Me-His2]TRH. The conditions noted are these: [3H][3-Me-His2]TRH-labeled receptor, rat brain pellets. An excerpt: (§2) Replacement of [His^2] practically aboli ...
For data set [9] the following is noted: mouse plasma.
Source text: as §2

For data set [10] the following is noted: rodents and humans. How it is done:
Studies in rodents and humans have shown that this tripeptide has a very short (6–10 min) half-life in plasma. The rapid degradation in this medium is mainly due to the action of pyroglutamyl aminopeptidases. Additionally, this highly hydrophilic molecule (logP = –2.46) also lacks its own active BBB transport system; thus, high doses of the peptide unavoidably manifesting a profound and undesired hormonal (endocrine) effect would be required for CNS application. Therefore, dissociation of endocrine and CNS actions of TRH is a crucial issue in designing TRH analogues a ...

The mark [11] stands for this setting: k’IAM = (tR-t0)/t0, t0 = retention time of [Glu^2]TRH as dead-volume marker.

Chain of TRH (P01150 whole entry, looked up): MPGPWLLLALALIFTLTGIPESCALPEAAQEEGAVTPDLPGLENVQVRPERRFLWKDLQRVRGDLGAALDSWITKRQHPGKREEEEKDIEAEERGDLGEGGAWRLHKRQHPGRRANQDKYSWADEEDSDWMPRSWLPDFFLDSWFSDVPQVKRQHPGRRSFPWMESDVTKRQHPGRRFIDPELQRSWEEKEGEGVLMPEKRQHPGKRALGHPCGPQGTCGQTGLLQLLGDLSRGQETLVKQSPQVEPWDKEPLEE

On to “Dht-Glu(OH)-Pro-NH2 [neutral prodrug without the ester function on the side-chain of the central residue]”, for which the “improvement of affinity to membrane lipids compared to the ionic analogue” value in data set [1] is reported as “three- to five-fold”. Further, the “k’IAM” value in data set [1] ([Trig^1] analogue prodrugs) is listed as 0.4.

On to “Dht-Glu(OHex)-Pro-NH2 [hexyl ester prodrug of Trig-Glu(OH)-Pro-NH2]”, for which the “t1/2 of hydrolysis of the ester” value (mouse) is recorded as 27 min. Also, in data set [1] ([Trig^1] analogue prodrugs), the “k’IAM” value is 28.6. The “Analeptic Effect: % Decrease in Sleeping Time” value (“Analeptic Effect: % Decrease” below) in the data set on mice [2] (n=6–16) was 18 ± 2%; with mice [2] (n=6–16, listed as Dht-Glu(OHex)–Pro-NH2), 18±2* %. Further, the “Porsolt Swim Test: % Decrease in Immobility” value (from here on “Porsolt Swim Test: % Decrease”) in the data set with mice [3] was 43±3* %.

Consider “Prodrug, S= Ala-Ala: [Leu^2]TRH brain-targeting prodrug: Dht attached through spacer Ala-Ala to Gln-Leu-Pro-Gly, carboxy-terminus esterified with cholesterol (Dht-AAQLPG-{O(cholesteryl)}; reading uncertain)”, for which, in the data set with mice [2] (15 µmol/kg i.v.), the “% Decrease in Sleeping Time” value is listed as 32 ± 4* %.

As for “Prodrug, S= Ala: [Leu^2]TRH brain-targeting prodrug: Dht attached through spacer Ala to Gln-Leu-Pro-Gly, carboxy-terminus esterified with cholesterol (Dht-AQLPG-{O(cholesteryl)}; reading uncertain)”, the “% Decrease in Sleeping Time” value in the data set on mice [2] (15 µmol/kg i.v.) is given as 30 ± 3* %.

“Prodrug, S= Pro-Ala: [Leu^2]TRH brain-targeting prodrug: Dht attached through spacer Pro-Ala to Gln-Leu-Pro-Gly, carboxy-terminus esterified with cholesterol (Dht-PAQLPG-{O(cholesteryl)}; reading uncertain)”: the “% Decrease in Sleeping Time” value in the data set with mice [2] (15 µmol/kg i.v.) is 56 ± 4** %.

As to “Prodrug, S= Pro-Pro: [Leu^2]TRH brain-targeting prodrug: Dht attached through spacer Pro-Pro to Gln-Leu-Pro-Gly, carboxy-terminus esterified with cholesterol (Dht-PPQLPG-{O(cholesteryl)}; reading uncertain)”, the “% Decrease in Sleeping Time” value with mice [2] (15 µmol/kg i.v.) was 55 ± 7** %.

Turning to “Prodrug, S= Pro: [Leu^2]TRH brain-targeting prodrug: Dht attached through spacer Pro to Gln-Leu-Pro-Gly, carboxy-terminus esterified with cholesterol (Dht-PQLPG-{O(cholesteryl)}; reading uncertain)”, the “% Decrease in Sleeping Time” value in the data set with mice [2] (15 µmol/kg i.v.) is on record as 47 ± 6** %.

One may read the Ki as a measure of affinity in units of concentration, obtained from inhibition or displacement. Consider TRH (from UniProt P01150), for which the Ki in data set [4] is 42 nM.

On to “Trig-Glu(OHex)-Pro-NH2 [hexyl ester of the designed [Trig^1] analogue of [Glu^2]TRH]”, for which the “Analeptic Effect: % Decrease” value in the data set with mice [2] (n=6–16) is 1±3%. Further, the “pharmacological (analeptic) response, in words” value in the data set on mice [2] (i.v., ionic compound without reduction of Trig to Dht) is “no pharmacological response was observed”. In addition, the “Porsolt Swim Test: % Decrease” value in the data set with mice [3] is 2±1%.

For the substance “[pGlu]-Glu-Pro-NH2 [[Glu^2]TRH, TRH-like endogenous tripeptide, reference compound]”, the “k’IAM” value in data set [1] (setting [11]) is on record as 0. Also, the “Sleeping time (min)” value with mice [2] is 65±3* min. Further, the “effect on triiodothyronine (T3) levels, in words” value in [5] is listed as “does not elevate triiodothyronine (T3) levels”. Also, the “binding to TRH receptors, in words” value in the data set on TRH receptors is recorded as “practically does not bind to TRH receptors”.

On to “[pGlu]-Leu-Pro-NH2 [[Leu^2]TRH, reference compound]”, for which, in the data set with mice [2] (15 µmol/kg i.v.), the “% Decrease in Sleeping Time” value is recorded as 17 ± 7%. In addition, the logP result in [6] was “–1.67”. Moreover, in data set [7], the “increase in typical TRH-associated analeptic effect compared to TRH” value is “approximately 2.5 fold”.

With “pGlu-Glu(OHex)-Pro-NH2 [R=Hex, n-hexyl ester prodrug of [Glu^2]TRH on the γ-COOH of Glu]”, the “t1/2” value (mouse) is reported as about 22 min. In addition, the “k’IAM” value in data set [1] (setting [11]) is 16.0. The “Sleeping time (min)” value in the data set with mice [2] is on record as 50±2** min. The “Analeptic Effect: % Decrease” value with mice [2] (n=6–16) is 37±3* %. The “ED50 (analeptic effect, dose-response)” value in the data set on mice [2] (i.v.) was “around 2 µmol/kg body weight”. Also, the “Porsolt Swim Test: % Decrease” value in the data set with mice [3] is 44±2* %.

One may read the half-life as how long it takes for the measured level to halve. With “pGlu-His-Pro-NH2 [TRH, thyrotropin-releasing hormone, native tripeptide]”, the half-life (mouse brain homogenate (20%, w/v)) is reported as 16 min and the half-life in data set [9] was 11 min. The “k’IAM” value in data set [1] (TRH, pyridinium analogues and their prodrugs) was 0.51. Also, the binding affinity in data set [8] is given as 42 nM. The “duration of the analeptic action, in words” value in the data set on mice [2] (15 µmol/kg i.v., pentobarbital 60 mg/kg i.p. given 60 min post drug vs 10 min, Figure 6) was “loss of over half of CNS-activity”. Also, the half-life in plasma in data set [10] is 6 to 10 min. Further, the logP result in [6] (logarithm of the n-octanol/water partition coefficient, review, no reference given for the value) is reported as “–2.46”.
